Assay results reported in paper PMC7069944, “Amino acid levels determine metabolism and CYP450 function of hepatocytes and hepatoma cell lines” (Nature Communications, 2020).
Where “and” joins values, the source holds several entries; their conditions need not be identical. Equal values may be shown once. Read-outs that look alike come from different tables or passages of the source.

Legend:
CYP3A4 [1] = molecular target: CYP3A4 (Homo sapiens, UniProt P08684)
Description: Comparative CYP450 biotransformation studies were performed to assess functionality across a number of gold standard primary hepatocyte models. Cryopreserved PHHs were obtained from a single donor (Lonza, Breda, The Netherlands) or pooled donors (Thermo Scientific, Merelbeke, Belgium). Upon thawing, cell suspensions (0.5 million cells/ml) were prepared in WE medium using 24-well plates (0.5 ml/well) on an orbital shaker and metabolization activity was assessed following a 15 min equilibration period. Human Hepatopac® plates were obtained from Ascendance Biotechnology (Ascendance Biotechnology, Boston USA) and cultures were maintained following instructions of the provider. Spheroid cultures were generated in-house as essentially described by Bell et al.[42].
Finally, the system was re-equilibrated at 60% (A)/40% (B) for an additional 0.7 min. Total run time was 3.8 min and 2 µl aliquots were injected onto the system for analysis.
All data collection, processing, and analysis was performed with Analyst® software (v1.6.2. SCIEX).

CYP3A4 [2] = experiment: CYP3A4-dependent BFC metabolization (fluorometric probe); format: in vitro ADME, human; conditions: for BFC metabolisation: Figure 2B, replicate values; for BFC metabolisation (pmol/h/1000000cells): Figure 1D
Description: Urea concentrations in the medium were analyzed after 24 h of culture using the QuantiChromTM Urea Assay Kit (BioAssay Systems DIUR-500) according to the manufacturer’s instructions. […] Metabolization was assessed for 1 h and 4 h incubation times. […] The albumin secretion rate was quantified using the human albumin ELISA quantification kit (Bethyl) according to instructions provided in the kit.

HepG2 = experiment: Repeated-exposure DILI training compounds, resazurin conversion, HepG2; conditions: repeat exposure
In short: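 Viability by resazurin conversion, correlated with Cmax, was assessed after drug exposure in 384-well cultures of differentiated PSCs and of HepG2 (40,000 cells/well). Dosing began 8 h post-attachment, with untreated wells as negative control.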

HLC = experiment: Repeated-exposure DILI training compounds, resazurin conversion, HLC; conditions: repeat exposure
In short: (§1)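 Hepatotoxicity prediction used a miniaturized 384-well differentiation setup, scoring viability through resazurin reduction relative to Cmax.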

HC6X = experiment: Repeated-exposure DILI training compounds, resazurin conversion, HC6X; conditions: repeat exposure
In short: as §1

HC3X = experiment: Repeated-exposure DILI training compounds, resazurin conversion, HC3X
In short: as §1

Sequence of CYP3A4 (Homo sapiens, UniProt P08684) (P08684 whole entry): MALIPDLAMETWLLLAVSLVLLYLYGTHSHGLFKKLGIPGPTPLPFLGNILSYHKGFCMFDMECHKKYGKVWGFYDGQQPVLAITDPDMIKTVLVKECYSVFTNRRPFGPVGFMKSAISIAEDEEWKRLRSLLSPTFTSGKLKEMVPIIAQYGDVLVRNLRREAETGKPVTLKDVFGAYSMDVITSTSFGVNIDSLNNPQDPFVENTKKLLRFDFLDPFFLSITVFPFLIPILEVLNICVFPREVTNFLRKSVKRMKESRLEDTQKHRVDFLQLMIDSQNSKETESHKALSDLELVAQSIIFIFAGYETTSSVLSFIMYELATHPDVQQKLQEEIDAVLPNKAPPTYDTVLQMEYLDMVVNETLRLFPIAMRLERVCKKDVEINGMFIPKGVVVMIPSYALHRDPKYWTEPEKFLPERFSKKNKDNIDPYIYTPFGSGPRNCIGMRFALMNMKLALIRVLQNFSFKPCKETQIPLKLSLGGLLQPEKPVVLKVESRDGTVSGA

## OCc1ncc2n1-c1ccc(Cl)cc1C(c1ccccc1F)=NC2 [1-OH midazolam]
CYP3A4 [1]; HepG2 AAGLY D32
  1-OH midazolam formation (drug biotransformation cocktail): 5.9655 and 7.1394 and 9.0214
CYP3A4 [1]; Hepatopac
  1-OH midazolam formation (drug biotransformation cocktail): 23.2481 and 33.0328 and 45.6546
CYP3A4 [1]; PHH1
  1-OH midazolam formation (drug biotransformation cocktail): 5.4616 and 6.486

## O=c1cc(C(F)(F)F)c2ccc(OCc3ccccc3)cc2o1 [BFC, 7-benzyloxy-4-trifluoromethylcoumarin]
CYP3A4 [2]; HC3X AAGLY D20
  relative BFC metabolsiation (compared to PHH 0h): 13.5398 and 11.6179 and 10.8677
CYP3A4 [2]; HC3X AAGLY D40
  relative BFC metabolsiation (compared to PHH 0h): 91.111 and 105.714 and 91
CYP3A4 [2]; HC3X AAGLY D50
  relative BFC metabolsiation (compared to PHH 0h): 143.333 and 136.667 and 101.19
CYP3A4 [2]; HC3X D20
  BFC metabolisation: 21.4494 pmol/h/1000000 cells and 25.0015 pmol/h/1000000 cells and 28.2425 pmol/h/1000000 cells
CYP3A4 [2]; HC3X LDM D20
  relative BFC metabolsiation (compared to PHH 0h): 1.9009 and 2.216 and 2.503
CYP3A4 [2]; HLC AAGLY D20
  relative BFC metabolsiation (compared to PHH 0h): 5.305 and 4.4 and 6.066
CYP3A4 [2]; HLC D20
  BFC metabolisation (pmol/h/1000000cells): 11.7761 pmol/h/1000000cells and 11.0043 pmol/h/1000000cells and 15.6069 pmol/h/1000000cells
  BFC metabolisation: 11.7761 pmol/h/1000000 cells and 11.0043 pmol/h/1000000 cells and 15.6069 pmol/h/1000000 cells
CYP3A4 [2]; HLC LDM D20
  relative BFC metabolsiation (compared to PHH 0h): 1.044 and 0.9752 and 0.9879
CYP3A4 [2]; HLC LDM D40
  relative BFC metabolsiation (compared to PHH 0h): 4.464 and 8.743 and 7.646
CYP3A4 [2]; PHH 0h
  relative BFC metabolsiation (compared to PHH 0h): 101.025 and 82.5131 and 116.462
  BFC metabolisation (pmol/h/1000000cells): 1139.95 pmol/h/1000000cells and 931.065 pmol/h/1000000cells and 1314.14 pmol/h/1000000cells
  BFC metabolisation: 1139.95 pmol/h/1000000 cells and 1031.07 pmol/h/1000000 cells and 1214.14 pmol/h/1000000 cells
CYP3A4 [2]; PHH 12h
  relative BFC metabolsiation (compared to PHH 0h): 9.941 and 9.524
  BFC metabolisation (pmol/h/1000000cells): 112.17 pmol/h/1000000cells and 107.467 pmol/h/1000000cells and 156.494 pmol/h/1000000cells
  BFC metabolisation: 112.17 pmol/h/1000000 cells and 107.467 pmol/h/1000000 cells and 156.494 pmol/h/1000000 cells

## Cc1ncc2n1-c1ccc(Cl)cc1C(c1ccccc1F)=NC2 [midazolam]
CYP3A4 [1]; HepG2 AAGLY D32 and HC6X AAGLY D40, single exposure
  midazolam biotransformation compared with PHHs: equal to that of PHHs

## OCc1ncc2n1-c1ccc(Cl)cc1C(c1ccccc1F)=NC2 [10H-midazolam]
CYP3A4 [1]; HC6X AAGLY D40, D46
  Stable 10H-midazolam metabolisation rate: 371.429 ng/h/100 000 cells and 443.182 ng/h/100 000 cells and 446.97 ng/h/100 000 cells
CYP3A4 [1]; HC6X AAGLY D40, D48
  Stable 10H-midazolam metabolisation rate: 353.788 ng/h/100 000 cells and 537.879 ng/h/100 000 cells and 462.121 ng/h/100 000 cells
CYP3A4 [1]; HepG2 AAGLY D30, column head D40
  Stable 10H-midazolam metabolisation rate: 79.0741 ng/h/100 000 cells and 82.3438 ng/h/100 000 cells and 89.7887 ng/h/100 000 cells
CYP3A4 [1]; HepG2 AAGLY D30, column head D42
  Stable 10H-midazolam metabolisation rate: 185 ng/h/100 000 cells and 122.333 ng/h/100 000 cells and 146.406 ng/h/100 000 cells
CYP3A4 [1]; HepG2 AAGLY D30, column head D46
  Stable 10H-midazolam metabolisation rate: 133.654 ng/h/100 000 cells and 137.308 ng/h/100 000 cells and 133.846 ng/h/100 000 cells
CYP3A4 [1]; HepG2 AAGLY D30, column head D48
  Stable 10H-midazolam metabolisation rate: 133.333 ng/h/100 000 cells and 151.667 ng/h/100 000 cells and 136.296 ng/h/100 000 cells
CYP3A4 [1]; HepG2 AAGLY D30, column head D50
  Stable 10H-midazolam metabolisation rate: 105 ng/h/100 000 cells and 107.963 ng/h/100 000 cells and 103.75 ng/h/100 000 cells

## COc1ccccc1Oc1c(NS(=O)(=O)c2ccc(C(C)(C)C)cc2)nc(-c2ncccn2)nc1OCCO [bosentan]
HepG2; HepG2 AAGLY D30, 3 uM
  % resazurin conversion: 83.9% and 87.5% and 86.6% and 85% and 90.8% and 89.1%
HepG2; HepG2 AAGLY D30, 5 uM
  % resazurin conversion: 103.5% and 109.8% and 105.4% and 106.1% and 101% and 103.7%
HepG2; HepG2 AAGLY D30, 10 uM
  % resazurin conversion: 90.8% and 98.2% and 96.3% and 97.7% and 97.3% and 97.5%
HepG2; HepG2 AAGLY D30, 30 uM
  % resazurin conversion: 90.6% and 101.6% and 98.2% and 101.9% and 99.2% and 99.7%
HepG2; HepG2 AAGLY D30, 50 uM
  % resazurin conversion: 84.4% and 90.1% and 80.4% and 87% and 86.9% and 92.2%
HepG2; HepG2 AAGLY D30, 600 uM
  % resazurin conversion: 8% and 8.7% and 8.4% and 8.6% and 8.3% and 9%
HepG2; HepG2 AAGLY D30, 1200 uM
  % resazurin conversion: 7.9% and 8.6% and 8% and 8.4% and 8.7%
HepG2; HepG2 CTL D7, 3 uM
  % resazurin conversion: 72.9% and 95.8% and 79% and 88.4% and 77.2% and 78.8%
HepG2; HepG2 CTL D7, 5 uM
  % resazurin conversion: 73% and 91.1% and 80.4% and 81.6% and 71% and 76.1%
HepG2; HepG2 CTL D7, 10 uM
  % resazurin conversion: 80.2% and 87.8% and 81.3% and 100.4% and 83.9% and 90.2%
HepG2; HepG2 CTL D7, 30 uM
  % resazurin conversion: 88.1% and 98.7% and 86.3% and 105.4% and 85.7% and 92.4%
HepG2; HepG2 CTL D7, 50 uM
  % resazurin conversion: 100.8% and 104.7% and 98% and 123.6% and 67.3% and 101.1%
HepG2; HepG2 CTL D7, 100 uM
  % resazurin conversion: 111.8% and 105.3% and 106.2% and 109.9% and 117.5%
HepG2; HepG2 CTL D7, 300 uM
  % resazurin conversion: 107% and 119.1% and 111.5% and 146.3% and 120.1% and 110.8%
HepG2; HepG2 CTL D7, 600 uM
  % resazurin conversion: 50.2% and 44.9% and 48.2% and 53.5% and 46.5% and 47.5%
HepG2; HepG2 CTL D7, 1200 uM
  % resazurin conversion: 40.4% and 38.1% and 40.3% and 39.7% and 40.2% and 39%
HLC; HLC AAGLY D40, 3 uM
  % resazurin conversion: 109.3% and 112.7% and 130.6% and 92% and 117.8% and 119.8%
HLC; HLC AAGLY D40, 10 uM
  % resazurin conversion: 148.2% and 164.2% and 142.5% and 106% and 129.2% and 90.2%
HLC; HLC AAGLY D40, 30 uM
  % resazurin conversion: 132.6% and 125.2% and 98.6% and 133% and 124.8%
HLC; HLC AAGLY D40, 300 uM
  % resazurin conversion: 153.6% and 174.4% and 181% and 131.1% and 171.9% and 113.3%
HLC; HLC LDM D40, 3 uM
  % resazurin conversion: 65.2% and 80.9% and 104.5% and 116.7% and 90.6% and 90.5%
HLC; HLC LDM D40, 5 uM
  % resazurin conversion: 79.3% and 100.8% and 63.5% and 57.3% and 83.2% and 66.4%
HLC; HLC LDM D40, 10 uM
  % resazurin conversion: 54.2% and 93.9% and 81.1% and 77.7% and 59.3% and 81.3%
HLC; HLC LDM D40, 50 uM
  % resazurin conversion: 60.7% and 70.7% and 67.1% and 86.7% and 80.2% and 104.9%
HLC; HLC LDM D40, 100 uM
  % resazurin conversion: 75% and 93.6% and 100.7% and 102.7% and 92.9% and 94.1%
HC6X; HC6X AAGLY D40, 3 uM
  % resazurin conversion: 121.3% and 137.4% and 77.6% and 97.3% and 111.3% and 90.5%
HC6X; HC6X AAGLY D40, 5 uM
  % resazurin conversion: 110% and 103.2% and 89.1% and 89.6% and 114.4% and 93.7%
HC6X; HC6X AAGLY D40, 10 uM
  % resazurin conversion: 131.4% and 134.4% and 92.1% and 126.5% and 93.7% and 145.1%
HC6X; HC6X AAGLY D40, 50 uM
  % resazurin conversion: 121.5% and 126.6% and 76.5% and 101.9% and 125.3% and 68.1%
HC6X; HC6X AAGLY D40, 300 uM
  % resazurin conversion: 51.6% and 48.9% and 38.5% and 48% and 36.4% and 37.5%
HC6X; HC6X AAGLY D40, 600 uM
  % resazurin conversion: 42.8% and 51.2% and 38.6% and 45.8% and 36.3% and 36.8%
HC6X; HC6X AAGLY D40, 1200 uM
  % resazurin conversion: 43.6% and 36.9% and 34.8% and 34.9% and 34.2% and 34.3%
HC6X; HC6X AAGLY D40 Remove dox, 5 uM
  % resazurin conversion: 141.3% and 131.9% and 106.3% and 141.8% and 135.5% and 84.1%
HC6X; HC6X AAGLY D40 Remove dox, 10 uM
  % resazurin conversion: 112.1% and 102.7% and 152.9% and 116.3% and 149.9% and 95.7%
HC3X; human
  IC50/Cmax: 20.81
HC3X; repeat exposure, HC3X AAGLY D40, 600 uM
  % resazurin conversion: 1159% and 1257% and 1241% and 1301% and 1247% and 1406%
